# Starred links: 1 amine or outer side, 2 acyl side, 3 side chain; linkers in the order of their positions; H or OH if unused. Non-standard residues stand in square brackets, D forms with d. Residues, ends and D or L forms follow the SMILES beside them. *: point of attachment. X1 = O=C(O)CN1CCN(CC(=O)O)CCN([C@H](CCC(=O)*)C(=O)O)CCN(CC(=O)O)CC1; Benzoyl(4-SiFtBu2) = CC(C)(C)[Si](F)(c1ccc(C(=O)*)cc1)C(C)(C)C; DOTA = O=C(O)CN1CCN(CC(=O)O)CCN(CC(=O)*)CCN(CC(=O)O)CC1; d(γGlu) = O=C(O)[C@@H](CCC(=O)[*:2])N[*:1]; Nle = CCCC[C@H](N)C(=O)O; dDap = NC[C@@H](N)C(=O)O
# Assay: Lipophilicity, n-octanol/PBS (pH 7.4) distribution coefficient
# Assay type: physicochemical
# Conditions: 177Lu-labelled peptide; n-octanol/PBS pH 7.4; read-out: logD7.4
# Procedure: Lipophilicity (depicted as octanol-phosphate-buffered saline solution (PBS, pH = 7.4) distribution coefficient, logD7.4) was determined via dissolving the ^177Lu-labelled peptide (approx. 1 MBq) in a mixture (1/1, v/v) of n-octanol and PBS. The suspension was vortexed in a reaction vial (1.5 mL) for 3 min at RT and the vial was centrifuged at 9000× […] for 5 min (Biofuge 15, Heraus Sepatech GmbH, Osterode, Germany). 200 μL aliquots of both layers were measured separately in a γ-counter (Perkin Elmer, Waltham, MA, USA). The experiment was repeated at least five times.
row,Compound,logD
1,"CCCC[C@H](NC(=O)[C@H](Cc1c[nH]c2ccccc12)NC(=O)CNC(=O)[C@H](Cc1ccc(O)cc1)NC(=O)[C@H](C)NC(=O)CC[C@@H](NC(=O)[C@@H](CNC(=O)c1ccc([Si](F)(C(C)(C)C)C(C)(C)C)cc1)NC(=O)CC[C@@H](NC(=O)CC[C@@H](NC(=O)CC[C@@H](NC(=O)CC[C@@H](NC(=O)CC[C@@H](NC(=O)CC[C@H](C(=O)O)N1CCN(CC(=O)O)CCN(CC(=O)O)CCN(CC(=O)O)CC1)C(=O)O)C(=O)O)C(=O)O)C(=O)O)C(=O)O)C(=O)O)C(=O)N[C@@H](CC(=O)O)C(=O)N[C@@H](Cc1ccccc1)C(N)=O [[nat/177Lu]Lu-(R)-DOTAGA-rhCCK-11, metal not drawn] ({X1-d(γGlu)-d(γGlu)-d(γGlu)-d(γGlu)-d(γGlu)}-[dDap](Benzoyl(4-SiFtBu2))[d(γGlu)]AYGW[Nle]DF-NH2)",-2.23 ± 0.07
2,"CCCC[C@H](NC(=O)[C@H](Cc1c[nH]c2ccccc12)NC(=O)CNC(=O)[C@H](Cc1ccc(O)cc1)NC(=O)[C@H](C)NC(=O)[C@@H](CNC(=O)c1ccc([Si](F)(C(C)(C)C)C(C)(C)C)cc1)NC(=O)CC[C@@H](NC(=O)CC[C@@H](NC(=O)CC[C@@H](NC(=O)CC[C@@H](NC(=O)CC[C@@H](NC(=O)CC[C@@H](NC(=O)CC[C@H](C(=O)O)N1CCN(CC(=O)O)CCN(CC(=O)O)CCN(CC(=O)O)CC1)C(=O)O)C(=O)O)C(=O)O)C(=O)O)C(=O)O)C(=O)O)C(=O)N[C@@H](CC(=O)O)C(=O)N[C@@H](Cc1ccccc1)C(N)=O [[nat/177Lu]Lu-(R)-DOTAGA-rhCCK-10, metal not drawn] ({X1-d(γGlu)-d(γGlu)-d(γGlu)-d(γGlu)-d(γGlu)-d(γGlu)}-[dDap](Benzoyl(4-SiFtBu2))AYGW[Nle]DF-NH2)",-2.15 ± 0.08
3,"CCCC[C@H](NC(=O)[C@H](Cc1c[nH]c2ccccc12)NC(=O)CNC(=O)[C@H](Cc1ccc(O)cc1)NC(=O)[C@H](C)NC(=O)[C@@H](CCC(=O)O)NC(=O)[C@@H](CCC(=O)O)NC(=O)[C@@H](CCC(=O)O)NC(=O)[C@@H](CCC(=O)O)NC(=O)[C@@H](CCC(=O)O)NC(=O)[C@@H](CNC(=O)c1ccc([Si](F)(C(C)(C)C)C(C)(C)C)cc1)NC(=O)[C@@H](CCC(=O)O)NC(=O)CC[C@H](C(=O)O)N1CCN(CC(=O)O)CCN(CC(=O)O)CCN(CC(=O)O)CC1)C(=O)N[C@@H](CC(=O)O)C(=O)N[C@@H](Cc1ccccc1)C(N)=O [[nat/177Lu]Lu-(R)-DOTAGA-rhCCK-6, metal not drawn] (X1-[dE][dDap](Benzoyl(4-SiFtBu2))[dE][dE][dE][dE][dE]AYGW[Nle]DF-NH2)",-2.22 ± 0.08
4,"CCCC[C@H](NC(=O)[C@H](Cc1c[nH]c2ccccc12)NC(=O)CNC(=O)[C@H](Cc1ccc(O)cc1)NC(=O)[C@H](C)NC(=O)[C@@H](CCC(=O)O)NC(=O)[C@@H](CCC(=O)O)NC(=O)[C@@H](CCC(=O)O)NC(=O)[C@@H](CCC(=O)O)NC(=O)[C@@H](CNC(=O)c1ccc([Si](F)(C(C)(C)C)C(C)(C)C)cc1)NC(=O)[C@@H](CCC(=O)O)NC(=O)[C@@H](CCC(=O)O)NC(=O)CC[C@H](C(=O)O)N1CCN(CC(=O)O)CCN(CC(=O)O)CCN(CC(=O)O)CC1)C(=O)N[C@@H](CC(=O)O)C(=O)N[C@@H](Cc1ccccc1)C(N)=O [[nat/177Lu]Lu-(R)-DOTAGA-rhCCK-5, metal not drawn] (X1-[dE][dE][dDap](Benzoyl(4-SiFtBu2))[dE][dE][dE][dE]AYGW[Nle]DF-NH2)",-2.67 ± 0.05
5,"CCCC[C@H](NC(=O)[C@H](Cc1c[nH]c2ccccc12)NC(=O)CNC(=O)[C@H](Cc1ccc(O)cc1)NC(=O)[C@H](C)NC(=O)CC[C@@H](NC(=O)CC[C@@H](NC(=O)CC[C@@H](NC(=O)CC[C@@H](NC(=O)CC[C@@H](NC(=O)CC[C@@H](NC(=O)CC[C@@H](NC(=O)[C@@H](CNC(=O)c1ccc([Si](F)(C(C)(C)C)C(C)(C)C)cc1)NC(=O)CC[C@H](C(=O)O)N1CCN(CC(=O)O)CCN(CC(=O)O)CCN(CC(=O)O)CC1)C(=O)O)C(=O)O)C(=O)O)C(=O)O)C(=O)O)C(=O)O)C(=O)O)C(=O)N[C@@H](CC(=O)O)C(=O)N[C@@H](Cc1ccccc1)C(N)=O [[nat/177Lu]Lu-(R)-DOTAGA-rhCCK-17, metal not drawn]",-2.1 ± 0.06
6,"CCCC[C@H](NC(=O)[C@H](Cc1c[nH]c2ccccc12)NC(=O)CNC(=O)[C@H](Cc1ccc(O)cc1)NC(=O)[C@H](C)NC(=O)CC[C@@H](NC(=O)CC[C@@H](NC(=O)CC[C@@H](NC(=O)CC[C@@H](NC(=O)[C@@H](CNC(=O)c1ccc([Si](F)(C(C)(C)C)C(C)(C)C)cc1)NC(=O)CC[C@@H](NC(=O)CC[C@@H](NC(=O)CC[C@H](C(=O)O)N1CCN(CC(=O)O)CCN(CC(=O)O)CCN(CC(=O)O)CC1)C(=O)O)C(=O)O)C(=O)O)C(=O)O)C(=O)O)C(=O)O)C(=O)N[C@@H](CC(=O)O)C(=O)N[C@@H](Cc1ccccc1)C(N)=O [[nat/177Lu]Lu-(R)-DOTAGA-rhCCK-14, metal not drawn] ({X1-d(γGlu)-d(γGlu)}-[dDap](Benzoyl(4-SiFtBu2))[d(γGlu)][d(γGlu)][d(γGlu)][d(γGlu)]AYGW[Nle]DF-NH2)",-2.26 ± 0.05
7,"CCCC[C@H](NC(=O)[C@H](Cc1c[nH]c2ccccc12)NC(=O)CNC(=O)[C@H](Cc1ccc(O)cc1)NC(=O)[C@H](C)NC(=O)[C@@H](CNC(=O)c1ccc([Si](F)(C(C)(C)C)C(C)(C)C)cc1)NC(=O)[C@@H](CCC(=O)O)NC(=O)[C@@H](CCC(=O)O)NC(=O)[C@@H](CCC(=O)O)NC(=O)[C@@H](CCC(=O)O)NC(=O)[C@@H](CCC(=O)O)NC(=O)[C@@H](CCC(=O)O)NC(=O)CC[C@H](C(=O)O)N1CCN(CC(=O)O)CCN(CC(=O)O)CCN(CC(=O)O)CC1)C(=O)N[C@@H](CC(=O)O)C(=O)N[C@@H](Cc1ccccc1)C(N)=O [[nat/177Lu]Lu-(R)-DOTAGA-rhCCK-1, metal not drawn] (X1-[dE][dE][dE][dE][dE][dE][dDap](Benzoyl(4-SiFtBu2))AYGW[Nle]DF-NH2)",-1.71 ± 0.1

# Same assay, conditions: pH 7.4
row,logD,Compound
1,-4.38 ± 0.05,"CCCC[C@H](NC(=O)[C@H](Cc1c[nH]c2ccccc12)NC(=O)CNC(=O)[C@H](Cc1ccc(O)cc1)NC(=O)[C@H](C)NC(=O)CC[C@@H](NC(=O)CC[C@@H](NC(=O)CC[C@@H](NC(=O)CC[C@@H](NC(=O)CC[C@@H](NC(=O)CC[C@@H](NC(=O)CN1CCN(CC(=O)O)CCN(CC(=O)O)CCN(CC(=O)O)CC1)C(=O)O)C(=O)O)C(=O)O)C(=O)O)C(=O)O)C(=O)O)C(=O)N[C@@H](CC(=O)O)C(=O)N[C@@H](Cc1ccccc1)C(N)=O [[nat/177Lu]Lu-DOTA-PP-γ-F11N, metal not drawn] ({DOTA-d(γGlu)-d(γGlu)-d(γGlu)-d(γGlu)-d(γGlu)-d(γGlu)}-AYGW[Nle]DF-NH2)"
2,-4.3 ± 0.08,"CSCC[C@H](NC(=O)[C@H](Cc1c[nH]c2ccccc12)NC(=O)CNC(=O)[C@H](Cc1ccc(O)cc1)NC(=O)[C@H](C)NC(=O)CC[C@@H](NC(=O)CC[C@@H](NC(=O)CC[C@@H](NC(=O)CC[C@@H](NC(=O)CC[C@@H](NC(=O)CC[C@@H](NC(=O)CN1CCN(CC(=O)O)CCN(CC(=O)O)CCN(CC(=O)O)CC1)C(=O)O)C(=O)O)C(=O)O)C(=O)O)C(=O)O)C(=O)O)C(=O)N[C@@H](CC(=O)O)C(=O)N[C@@H](Cc1ccccc1)C(N)=O [[nat/177Lu]Lu-γ-CP04, metal not drawn]"
